Legend:
[1] = test system: normal NK cells expanded with K562-aAPC; experiment: drug sensitivity score (DSS) (DSS units); higher = more sensitive; extreme values may be limits of the assay; details: 72 h; IL-2 2.5 ng/mL
Experimental: (§1)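 Drug sensitivity and resistance testing on K562-aAPC-expanded normal NK cells: 5 concentrations (10-fold steps over a 10,000-fold range), 72 h at 37 °C, viability by CellTiter-Glo normalised to DMSO and benzethonium chloride controls; DSS from the fitted curve.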

YT (IL-2 2.5 ng/mL) [2] = experiment: percent inhibition of viability; higher = more inhibition; details: 72 h
KHYG-1 (IL-2 2.5 ng/mL) [3] = experiment: as above; details: 72 h
[4] = test system: normal primary NK cells, pool 2 (3 donors) (IL-2 2.5 ng/mL); experiment: as above; details: 72 h
NK-YS (IL-2 2.5 ng/mL) [5] = experiment: as above; details: 72 h
[6] = test system: normal primary NK cells, pool 1 (3 donors), resting (IL-2 0 ng/mL); experiment: as above; details: 72 h
[7] = test system: normal primary NK cells, pool 3 (3 donors) (IL-2 2.5 ng/mL); experiment: as above; details: 72 h
KAI3 (IL-2 2.5 ng/mL) [8] = experiment: as above; details: 72 h
NK-92 (IL-2 2.5 ng/mL) [9] = experiment: as above; details: 72 h
DERL-7 (IL-2 2.5 ng/mL) [10] = experiment: as above; details: 72 h
NKL (IL-2 2.5 ng/mL) [11] = experiment: as above; details: 72 h
[12] = test system: normal primary NK cells, pool 1 (3 donors) (IL-2 2.5 ng/mL); experiment: as above; details: 72 h
IMC-1 (IL-2 20 ng/mL) [13] = experiment: as above; details: 72 h
SNK-6 (IL-2 2.5 ng/mL) [14] = experiment: as above; details: 72 h
YT (IL-2 2.5 ng/mL) [15] = experiment: drug sensitivity score (DSS) (DSS units); higher = more sensitive; extreme values may be limits of the assay; details: 72 h
KHYG-1 (IL-2 2.5 ng/mL) [16] = experiment: as above; details: 72 h
[17] = test system: normal primary NK cells, pool 2 (3 donors) (IL-2 2.5 ng/mL); experiment: as above; details: 72 h
NK-YS (IL-2 2.5 ng/mL) [18] = experiment: as above; details: 72 h
[19] = test system: normal primary NK cells, pool 1 (3 donors), resting (IL-2 0 ng/mL); experiment: as above; details: 72 h
[20] = test system: normal primary NK cells, pool 3 (3 donors) (IL-2 2.5 ng/mL); experiment: as above; details: 72 h
KAI3 (IL-2 2.5 ng/mL) [21] = experiment: as above; details: 72 h
NK-92 (IL-2 2.5 ng/mL) [22] = experiment: as above; details: 72 h
DERL-7 (IL-2 2.5 ng/mL) [23] = experiment: as above; details: 72 h
NKL (IL-2 2.5 ng/mL) [24] = experiment: as above; details: 72 h
[25] = test system: normal primary NK cells, pool 1 (3 donors) (IL-2 2.5 ng/mL); experiment: as above; details: 72 h
IMC-1 (IL-2 20 ng/mL) [26] = experiment: as above; details: 72 h
SNK-6 (IL-2 2.5 ng/mL) [27] = experiment: as above; details: 72 h
[28] = test system: normal NK cells expanded with K562-aAPC; experiment: percent inhibition of viability; higher = more inhibition; details: 72 h, IL-2 2.5 ng/mL
Experimental: as §1

CC[C@@H]1C(=O)OC[C@@H]1Cc1cncn1C [Pilocarpine] (max concentration tested 40000 nM)
Details	drug sensitivity score
DERL-7 (IL-2 2.5 ng/mL) [23]	0
IMC-1 (IL-2 20 ng/mL) [26]	0
KAI3 (IL-2 2.5 ng/mL) [21]	0.01
KHYG-1 (IL-2 2.5 ng/mL) [16]	0.51
NK-92 (IL-2 2.5 ng/mL) [22]	0.79
NK-YS (IL-2 2.5 ng/mL) [18]	0.76
NKL (IL-2 2.5 ng/mL) [24]	0
SNK-6 (IL-2 2.5 ng/mL) [27]	0
YT (IL-2 2.5 ng/mL) [15]	0.14
[1]	0
[17]	0
[19]	0
[20]	0
[25]	0

percent inhibition of viability [%]
Details	4 nM	40 nM	400 nM	4000 nM	40000 nM
DERL-7 (IL-2 2.5 ng/mL) [10]	1.42	-1.75	0.14	2.27	-9.94
IMC-1 (IL-2 20 ng/mL) [13]	0.9	2.74	3.37	7.24	10.8
KAI3 (IL-2 2.5 ng/mL) [8]	-4.19	-2.59	-0.69	0.97	10.8
KHYG-1 (IL-2 2.5 ng/mL) [3]	-5.1	0.26	0.29	8.1	13.5
NK-92 (IL-2 2.5 ng/mL) [9]	-3.6	-6.46	-0.49	3.22	17.6
NK-YS (IL-2 2.5 ng/mL) [5]	-0.26	2	1.94	9.78	16
NKL (IL-2 2.5 ng/mL) [11]	0.76	-2.78	1.71	1.49	4.41
SNK-6 (IL-2 2.5 ng/mL) [14]	7.63	1.2	25.3	7.63	17.4
YT (IL-2 2.5 ng/mL) [2]	0.63	-1.77	4.55	7.37	12.4
[4]	-4.81	-4.05	-0.5	4.72	-5.35
[6]	2.62	11.3	-11.4	2.11	-5.32
[7]	-10.7	-14.3	-6.23	1.83	-3.82
[12]	-1.79	4.63	-1.46	6	3.9
[28]	-3.76	-0.92	0.04	4.29	9.84

Cc1cnc(NC(=O)Nc2cc(Br)c(C)cc2OC[C@@H]2CNCCO2)cn1 [Rabusertib] (max concentration tested 1000 nM)
Details	drug sensitivity score
DERL-7 (IL-2 2.5 ng/mL) [23]	2.31
IMC-1 (IL-2 20 ng/mL) [26]	0
KAI3 (IL-2 2.5 ng/mL) [21]	6.43
KHYG-1 (IL-2 2.5 ng/mL) [16]	8.07
NK-92 (IL-2 2.5 ng/mL) [22]	7.67
NK-YS (IL-2 2.5 ng/mL) [18]	4.02
NKL (IL-2 2.5 ng/mL) [24]	7.11
SNK-6 (IL-2 2.5 ng/mL) [27]	5.37
YT (IL-2 2.5 ng/mL) [15]	0
[1]	5.12
[17]	0.35
[19]	0
[20]	0
[25]	0

percent inhibition of viability [%]
Details	0.1 nM	1 nM	10 nM	100 nM	1000 nM
DERL-7 (IL-2 2.5 ng/mL) [10]	5.67	5.69	4.81	4.56	33.5
IMC-1 (IL-2 20 ng/mL) [13]	-3.74	-1.84	2.04	1.67	9.87
KAI3 (IL-2 2.5 ng/mL) [8]	-0.28	-3.83	3.9	11.6	81
KHYG-1 (IL-2 2.5 ng/mL) [3]	3.66	7.68	5.93	14.9	103
NK-92 (IL-2 2.5 ng/mL) [9]	-4.77	4.85	16	18.2	86.9
NK-YS (IL-2 2.5 ng/mL) [5]	1.16	1.34	0.68	3.22	65.2
NKL (IL-2 2.5 ng/mL) [11]	-16.6	0.3	-1.09	14	86.2
SNK-6 (IL-2 2.5 ng/mL) [14]	11.6	6.32	2.12	11.8	62.8
YT (IL-2 2.5 ng/mL) [2]	-0.82	-0.63	1.16	-2	11
[4]	-8.45	5.23	3.94	0.79	15.8
[6]	5.84	-6.29	4.9	-19.1	-1.65
[7]	-20.8	-8.02	3.37	-3.4	8.17
[12]	-1.58	-1.28	-6.24	-18	-4.02
[28]	4.2	-1.61	0.16	13.5	55.7

C[C@@H]1C[C@H]2O[C@@H]2/C=C\C=C\C(=O)Cc2c(Cl)c(O)cc(O)c2C(=O)O1 [Radicicol] (max concentration tested 10000 nM)
Details	drug sensitivity score
DERL-7 (IL-2 2.5 ng/mL) [23]	28.9
IMC-1 (IL-2 20 ng/mL) [26]	18.1
KAI3 (IL-2 2.5 ng/mL) [21]	25.1
KHYG-1 (IL-2 2.5 ng/mL) [16]	20.2
NK-92 (IL-2 2.5 ng/mL) [22]	22.8
NK-YS (IL-2 2.5 ng/mL) [18]	20
NKL (IL-2 2.5 ng/mL) [24]	19.4
SNK-6 (IL-2 2.5 ng/mL) [27]	23.3
YT (IL-2 2.5 ng/mL) [15]	14.2
[1]	23.9
[17]	23.6
[19]	10.6
[20]	20.5
[25]	20.8

percent inhibition of viability [%]
Details	1 nM	10 nM	100 nM	1000 nM	10000 nM
DERL-7 (IL-2 2.5 ng/mL) [10]	-0.88	14.3	79.4	100	101
IMC-1 (IL-2 20 ng/mL) [13]	-2.78	3.67	0.43	101	101
KAI3 (IL-2 2.5 ng/mL) [8]	1.19	9.86	58.6	99.8	94.4
KHYG-1 (IL-2 2.5 ng/mL) [3]	0.9	2.76	13.1	101	110
NK-92 (IL-2 2.5 ng/mL) [9]	-1.96	-4.16	34.1	99.2	104
NK-YS (IL-2 2.5 ng/mL) [5]	3.72	7.15	24.6	93.4	99.7
NKL (IL-2 2.5 ng/mL) [11]	-1.4	4.63	30.1	85.8	81.6
SNK-6 (IL-2 2.5 ng/mL) [14]	8	13.2	49.9	96.8	78.6
YT (IL-2 2.5 ng/mL) [2]	-1.95	7.65	16.1	64.4	91.6
[4]	-13.3	-1.53	60.7	82	91.3
[6]	9.89	-3.46	22.4	41.1	75.4
[7]	-8.94	-10.4	38	82.1	91.5
[12]	5.96	-3.33	44.2	80.8	94.1
[28]	-4.44	1.88	51	98.6	80.6

From the supplement of paper PMC5908809
